Results as given in article PMC6522510 (Nature Communications, 2019).
Like-named read-outs stand apart in the source and are kept apart here.

Key:
Assay in all cases: cells
Set-up in all cases: species or system AML cell lines (8); Secondary HTS, 10-point dose-response in triplicate, Cell Titer Glo viability, four-parameter fit EC50
ML-2 = details: Homo sapiens, read-out: ML-2
CMK = details: Homo sapiens, read-out: CMK
M07e = details: M-07e, read-out: M07e
CMS = details: read-out: CMS
U937 = details: Homo sapiens, read-out: U937
MOLM-13 = details: Homo sapiens, read-out: MOLM-13
CHRF288-11 = details: read-out: CHRF288-11
MV4-11 = details: Homo sapiens, read-out: MV4-11

| SMILES | EC50 (ML-2; ML-2, 72 h) [µM] | EC50 (CMK; CMK, 72 h) [µM] | EC50 (M07e; 72 h) [µM] | EC50 (CMS; 72 h) [µM] | EC50 (U937; U-937, 72 h) [µM] | EC50 (MOLM-13; MOLM-13, 72 h) [µM] | EC50 (CHRF288-11; 72 h) [µM] | EC50 (MV4-11; MV4-11, 72 h) [µM] | EC50 (ML-2; 72 h cell viability) [µM] | EC50 (CMK; 72 h cell viability) [µM] | EC50 (M07e; 72 h cell viability) [µM] | EC50 (CMS; 72 h cell viability) [µM] | EC50 (U937; U-937, 72 h cell viability) [µM] | EC50 (MOLM-13; 72 h cell viability) [µM] | EC50 (CHRF288-11; 72 h cell viability) [µM] | EC50 (MV4-11; 72 h cell viability) [µM] |
| --- | --- | --- | --- | --- | --- | --- | --- | --- | --- | --- | --- | --- | --- | --- | --- | --- |
| COc1cc2ncnc(-n3nc(-c4ccccn4)nc3N)c2cc1OC [SJ000510891, CP-466722] | > 10 | > 10 | 0.63 | > 10 | > 10 | > 10 | > 10 | > 10 | – | – | – | – | – | – | – | – |
| CO[C@H]1/C=C\C=C(/C)C(=O)NC2=CC(=O)C(NCCN(C)C)=C(C[C@@H](C)C[C@H](OC)[C@H](O)[C@@H](C)/C=C(\C)[C@@H]1OC(N)=O)C2=O [SJ000534765, 17-DMAG] | 0.046 | 0.75 | 2 | 0.092 | 0.025 | 0.039 | 0.52 | 0.044 | – | – | – | – | – | – | – | – |
| CC(/C=C/C(=O)NO)=C\[C@@H](C)C(=O)c1ccc(N(C)C)cc1 [SJ000534770, TRICHOSTATIN A] | 0.114 | 0.047 | 0.09 | 0.0442 | 0.0364 | 0.0771 | 0.0434 | 0.042 | – | – | – | – | – | – | – | – |
| C/C(=C\C(=O)Nc1ccccc1C(=O)O)c1ccc2ccccc2c1 [SJ000565230, BIBR-1532] | > 10 | > 10 | > 10 | > 10 | > 10 | 7.7 | 5 | > 10 | – | – | – | – | – | – | – | – |
| COc1cc(N2CCC(N3CCN(C)CC3)CC2)ccc1Nc1ncc(Cl)c(Nc2ccccc2S(=O)(=O)C(C)C)n1 [SJ000565231, NVP-TAE684] | 0.36 | 0.46 | 3.8 | > 10 | > 10 | 0.29 | 3.6 | 0.25 | – | – | – | – | – | – | – | – |
| Cc1ccccc1-n1c(Cn2cnc3c(N)ncnc32)nc2cccc(C)c2c1=O [SJ000571308, IC-87114] | > 10 | > 10 | > 10 | > 10 | > 10 | > 10 | > 10 | > 10 | – | – | – | – | – | – | – | – |
| Oc1cccc(-c2nc(N3CCOCC3)c3oc4ncccc4c3n2)c1 [SJ000574285, PIK 103] | > 10 | 3.2 | > 10 | > 10 | 0.41 | 0.94 | > 10 | 1.5 | – | – | – | – | – | – | – | – |
| CCNC(=O)C[C@@H]1N=C(c2ccc(Cl)cc2)c2cc(OC)ccc2-n2c(C)nnc21 [SJ000574791, I-BET-762] | 9.8 | > 10 | 0.001 | 9.8 | 4.3 | 4.6 | > 10 | 0.97 | – | – | – | – | – | – | – | – |
| COc1cc(Nc2ncc(F)c(Nc3ccc4c(n3)NC(=O)C(C)(C)O4)n2)cc(OC)c1OC [SJ000772392, R406] | > 10 | > 10 | > 10 | 0.9 | > 10 | 0.14 | > 10 | 0.057 | – | – | – | – | – | – | – | – |
| COc1cc(O)c2c(c1)/C=C/C[C@H](O)[C@H](O)C(=O)/C=C\C[C@H](C)OC2=O [SJ000773172, (5Z)-7-OXOZEAENOL] | 5.5 | 0.37 | 0.84 | 7.3 | 6.6 | > 10 | 2.1 | > 10 | – | – | – | – | – | – | – | – |
| Nc1[nH]nc2nnc(-c3c(-c4ccccc4)nn4ccccc34)cc12 [SJ000773182, FR 180204] | > 10 | > 10 | > 10 | > 10 | > 10 | > 10 | > 10 | > 10 | – | – | – | – | – | – | – | – |
| O=C(Nc1ccccc1-c1cn2c(CN3CCNCC3)csc2n1)c1cnc2ccccc2n1 [SJ000784238, SRT1720] | > 10 | > 10 | 4.4 | > 10 | 1.5 | > 10 | 5.6 | > 10 | – | – | – | – | – | – | – | – |
| Cc1ccc(NC(=O)CCCCCC(=O)Nc2ccccc2N)cc1 [SJ000784239, PIMELIC DIPHENYLAMIDE 106] | > 10 | > 10 | 6.7 | 8.2 | > 10 | > 10 | > 10 | > 10 | – | – | – | – | – | – | – | – |
| Cc1cc(Cl)ccc1OCCCC(=O)NO [SJ000784245, DROXINOSTAT] | > 10 | > 10 | > 10 | 6.81 | > 10 | > 10 | 0.37 | > 10 | – | – | – | – | – | – | – | – |
| O=C(Nc1cccc(NC(=O)c2cccc(O)c2O)c1)c1cccc(O)c1O [SJ000784251, MST312] | 3.7 | > 10 | 5.2 | 2.9 | 2.8 | 1.5 | 2 | > 10 | – | – | – | – | – | – | – | – |
| O=C(O)Cc1ccccc1 [SJ000784253, SODIUM PHENYLACETATE] | – | – | – | – | – | – | – | – | > 10 | > 10 | > 10 | > 10 | > 10 | 2.1 | > 10 | > 10 |
| CC(=O)Nc1ccc(NC(=S)NC(=O)c2ccc(C(C)(C)C)cc2)cc1 [SJ000784260, TENOVIN-1] | > 10 | > 10 | > 10 | 0.77 | > 10 | > 10 | > 10 | > 10 | – | – | – | – | – | – | – | – |
| COc1cc2c(NC3CCN(C)CC3)nc(N3CCCN(C)CC3)nc2cc1OCCCN(C)C [SJ000784262, UNC0224] | > 10 | > 10 | > 10 | > 10 | > 10 | > 10 | > 10 | > 10 | – | – | – | – | – | – | – | – |
| CN(C)CC(=O)Nc1ccc2[nH]c(=O)c3ccccc3c2c1 [SJ000784265, PJ34] | > 10 | > 10 | > 10 | > 10 | > 10 | > 10 | > 10 | > 10 | – | – | – | – | – | – | – | – |
| NC(=O)C1CCCc2c1[nH]c1ccc(Cl)cc21 (centres unmarked) [SJ000784267] | > 10 | > 10 | > 10 | > 10 | > 10 | > 10 | > 10 | > 10 | – | – | – | – | – | – | – | – |
| Cn1cc(/C=C/C(=O)c2cccc(F)c2)cc1/C=C/C(=O)NO [SJ000784269, MC1568] | 4.3 | > 10 | 0.456 | > 10 | 3.4 | > 10 | 4.9 | > 10 | – | – | – | – | – | – | – | – |
| Clc1ccc(-c2csc(NN=C3CCCC3)n2)cc1 [SJ000784270, CPTH2] | > 10 | > 10 | > 10 | > 10 | > 10 | > 10 | > 10 | > 10 | – | – | – | – | – | – | – | – |
| Cn1cccc1/C=C1\C(=O)NC(=O)c2ccccc21 [SJ000784271, BYK 204165] | > 10 | > 10 | 0.63 | 2.2 | 1.6 | 0.26 | 5.5 | 0.72 | – | – | – | – | – | – | – | – |
| CN(C)CCCNc1c2ccccc2nc2c1[nH]c1ccccc12 [SJ000784272, SYUIQ-5] | 1.8 | > 10 | 0.54 | 0.37 | 0.21 | 1.6 | 1.6 | > 10 | – | – | – | – | – | – | – | – |
| CC(C)C(=O)SCCCCCCC(=O)Nc1nc(-c2ccccc2)cs1 [SJ000784276, NCH 51] | 5.6 | > 10 | 3.6 | 4.5 | 6.7 | 3.1 | 3.6 | > 10 | – | – | – | – | – | – | – | – |
| NC(=O)c1cccc2ncc(-c3ccc(Cl)cc3)nc12 [SJ000784278, PARP INHIBITOR XII] | > 10 | > 10 | > 10 | > 10 | > 10 | 2.5 | > 10 | > 10 | – | – | – | – | – | – | – | – |
| O=C(O)C(Cc1c[nH]c2ccccc12)N1C(=O)c2ccccc2C1=O (centres unmarked) [SJ000784279, RG108] | > 10 | > 10 | > 10 | > 10 | > 10 | > 10 | > 10 | > 10 | – | – | – | – | – | – | – | – |
| COC(=O)/C=C/C(=O)OC [SJ000784308, BG-12] | > 10 | > 10 | > 10 | > 10 | > 10 | > 10 | > 10 | > 10 | – | – | – | – | – | – | – | – |
